Results on one molecule are retold here after patent US20210000912A1, “Compositions And Methods For Prophylaxis Or Treatment Of Pain” (Interk Peptide Therapeutics Limited, priority 2017, published 2021).

One series deals with T1, PKG1α (h) (Homo sapiens, UniProt Q13976).
T1 construct: purchased Eurofins Pharma Discovery Services UK Ltd (contract assay service)
T1 sequence (Q13976 1-671): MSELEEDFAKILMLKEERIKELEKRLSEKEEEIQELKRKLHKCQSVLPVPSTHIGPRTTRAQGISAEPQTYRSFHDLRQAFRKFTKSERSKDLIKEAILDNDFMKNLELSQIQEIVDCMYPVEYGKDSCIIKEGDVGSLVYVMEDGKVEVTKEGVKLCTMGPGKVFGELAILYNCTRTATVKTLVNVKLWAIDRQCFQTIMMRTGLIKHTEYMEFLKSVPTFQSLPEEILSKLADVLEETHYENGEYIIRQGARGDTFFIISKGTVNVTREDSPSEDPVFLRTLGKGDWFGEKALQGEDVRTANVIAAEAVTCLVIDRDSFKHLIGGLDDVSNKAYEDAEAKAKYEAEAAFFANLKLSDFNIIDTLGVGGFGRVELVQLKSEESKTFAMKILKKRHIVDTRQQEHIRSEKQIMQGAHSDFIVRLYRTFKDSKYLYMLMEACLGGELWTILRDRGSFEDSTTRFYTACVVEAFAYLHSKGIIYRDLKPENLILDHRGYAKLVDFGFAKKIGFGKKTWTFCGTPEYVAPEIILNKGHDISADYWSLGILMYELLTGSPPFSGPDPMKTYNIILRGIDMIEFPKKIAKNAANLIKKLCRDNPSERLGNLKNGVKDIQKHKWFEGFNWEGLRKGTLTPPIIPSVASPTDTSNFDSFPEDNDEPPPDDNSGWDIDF
Kind of series: PKG1α kinase activity assay, cell free. The class given is biochemical. As to the method: (§1) The capacity of test peptides to inhibit the activity of the kinases PKG1α, PKG1β, and Src family kinases in a cell free assay was assessed. The test peptides were amidated at their C-terminal end (indicated by “—NH2”) unless otherwise noted. Kinase activity assays were conducted by Eurofins Pharma Discovery Services UK Ltd (Dundee Technology Park, Dundee, United Kingdom) and Reaction Biology Corp. (Malvern, Pa., USA).
(§2) All test peptides are prepared to 50× final assay concentration in 100% DMSO. This working stock of the test compound is added to assay wells as the first component in the reaction, followed by the remaining components of the respective assay protocols described below. There is no pre-incubation step between the test peptide and the kinase prior to initiation of the reaction. The kinases are diluted in buffer (20 mM MOPS, 1 mM EDTA, 0.01% Brij-35, 5% Glycerol, 0.1% β-mercaptoethanol, 1 mg/mL BSA) prior to addition to the reaction mix.
(§3) Positive control wells contain all components of the reaction, except the test peptide of interest. However, DMSO (at a final concentration of 2%) is included in positive control wells to control for solvent effects. Negative control wells contain all components of the reaction, with a reference inhibitor (staurosporine) replacing the test peptide. This abolishes kinase activity and establishes a base-line (0% kinase activity). Kinase assay protocols (Eurofins Pharma Discovery Services UK Ltd, Dundee Technology Park, Dundee, United Kingdom) are described below. Of the Src family kinases, only the assay protocol for c-Src is shown.
PKG1α (h) is incubated with 8 mM MOPS pH 7.0, 0.2 mM EDTA, 10 μM cGMP, 200 μM peptide RRRLSFAEPG, 10 mM magnesium acetate and [γ-^33P]-ATP (specific activity approx. 500 cpm/pmol, concentration as required). The reaction is initiated by the addition of the MgATP mix. After incubation for 40 minutes at room temperature, the reaction is stopped by the addition of 3% phosphoric acid solution. A 10 μL aliquot of the reaction is then spotted onto a P30 filtermat and washed three times for 5 mins in 75 mM phosphoric acid and once in methanol prior to drying and scintillation counting.

Another series deals with CFA-injected mice. Kind of series: Grip strength testing in CFA study. The series is classed as in vivo, C57Bl/6 mice. As to the method:
Forepaw grip strength was determined using a grip strength meter (DFIS-2 series digital force gauge, Columbus Instruments, Columbus, Ohio). The animals' forelimbs were placed on a horizontal bar connected to a force gauge. The animal was the gently pulled away from the bar and the peak force required for a release was recorded. Each mouse was tested 3 times, with a 1 min inter-trial interval (Martinez-Huenchullan, S. F., et al., “Utility and reliability of non-invasive muscle function tests in high-fat-fed mice”. Experimental Physiology, 2017. 102(7): p. 773-778). The average peak tension (g), and tension normalised to body weight were compared.

The target in another series is T2, PKG1β (h) (Homo sapiens, UniProt Q13976).
T2 construct: purchased Eurofins Pharma Discovery Services UK Ltd (contract assay service)
T2 sequence (Q13976 1-686 isoform Q13976-2): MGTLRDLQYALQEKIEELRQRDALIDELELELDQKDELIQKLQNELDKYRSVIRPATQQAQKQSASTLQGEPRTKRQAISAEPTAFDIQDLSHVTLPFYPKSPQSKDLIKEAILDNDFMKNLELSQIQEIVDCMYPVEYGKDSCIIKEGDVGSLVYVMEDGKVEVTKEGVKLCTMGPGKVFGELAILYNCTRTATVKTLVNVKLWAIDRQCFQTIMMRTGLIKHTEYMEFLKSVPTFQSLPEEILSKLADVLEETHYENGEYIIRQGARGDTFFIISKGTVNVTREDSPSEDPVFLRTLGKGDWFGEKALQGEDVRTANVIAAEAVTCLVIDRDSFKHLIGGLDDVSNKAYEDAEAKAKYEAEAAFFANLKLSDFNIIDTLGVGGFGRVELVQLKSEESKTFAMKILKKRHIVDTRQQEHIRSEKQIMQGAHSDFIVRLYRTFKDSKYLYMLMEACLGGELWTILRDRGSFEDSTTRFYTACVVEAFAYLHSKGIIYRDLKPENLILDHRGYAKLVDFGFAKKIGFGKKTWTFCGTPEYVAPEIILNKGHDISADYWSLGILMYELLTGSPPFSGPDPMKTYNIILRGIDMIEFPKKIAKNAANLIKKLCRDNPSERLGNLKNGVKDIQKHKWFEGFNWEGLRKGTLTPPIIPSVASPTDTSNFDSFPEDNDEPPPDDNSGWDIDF
The series can be described thus: PKG1β kinase activity assay, cell free. The series is classed as biochemical. As to the method: as §1, §2, §3
PKG1b(h) is incubated with 8 mM MOPS pH 7.0, 0.2 mM EDTA, 10 μM cGMP, 200 μM RRRLSFAEPG, 10 mM magnesium acetate and [γ-^33P]-ATP (specific activity approx. 500 cpm/pmol, concentration as required). The reaction is initiated by the addition of the MgATP mix. After incubation for 40 minutes at room temperature, the reaction is stopped by the addition of 3% phosphoric acid solution. A 10 μL aliquot of the reaction is then spotted onto a P30 filtermat and washed three times for 5 mins in 75 mM phosphoric acid and once in methanol prior to drying and scintillation counting.

Setting [1] is: cell free, 10 μM cGMP, 40 minutes at room temperature.

`N=C(N)NCCC[C@H](NC(=O)[C@H](CCCNC(=N)N)NC(=O)[C@H](CCCNC(=N)N)NC(=O)[C@H](CCCNC(=N)N)NC(=O)[C@H](CCCNC(=N)N)NC(=O)[C@H](CCCNC(=N)N)NC(=O)[C@H](CCCNC(=N)N)NC(=O)[C@H](CCCNC(=N)N)NC(=O)[C@H](CCCNC(=N)N)NC(=O)[C@H](CCCNC(=N)N)NC(=O)[C@H](CCCNC(=N)N)NC(=O)[C@H](CCCNC(=N)N)NC(=O)[C@H](CCCNC(=N)N)NC(=O)[C@@H](N)CCCNC(=N)N)C(N)=O` [IK01400, RRRRRRRRRRRRRR-NH2]: the IC50 (in general, the midpoint of a concentration-inhibition curve) against PKG1α (h) turned out to be 6.7 nM; against PKG1β (h), 5.3 nM. Besides, on PKG1α (h) (setting [1]), the “PKG1α IC50” value is reported as “single digit nanomolar range”. The alertness of animals entry with CFA-injected mice (all time points) is reported as “alert at all time points”. Further, the “grip strength compared to vehicle control” value in the series on CFA-injected mice (intra-peritoneal, CFA study) is given as “no difference”. Also, the “PKG1β IC50” value on PKG1β (h) (setting [1]) is recorded as “single digit nanomolar range”.
